Assay results published in patent publication US20100022559A1, “BISOXIMES AS FUNGICIDES” (BAYER CROPSCIENCE AG, priority 2006, published 2010).

Assay: logP determination by HPLC on a reversed-phase column (C 18), EEC Directive 79/831 Annex V.A8
Type: physicochemical
Settings: method marked [a] in Table 1
Method: The stated logP values were determined in accordance with EEC Directive 79/831 Annex V.A8 by HPLC (high performance liquid chromatography) on a reversed-phase column (C 18). Temperature: 43° C.

logP	Compound
3.23^[a]	CCC(=NOCC(C)CON=C(CC)c1cc(C)cc(C)n1)c1cc(C)cc(C)n1 (mixture of isomers) [Compound 572]
4.09^[a]	Cc1cccc(C(=NOCC(C)CON=C(c2ccccc2)c2cccc(C)n2)c2ccccc2)n1 (mixture of isomers) [Compound 659]
2.05^[a]	CC(=NOCC(C)CON=C(C)c1nc2ccccc2[nH]1)c1nc2ccccc2[nH]1 (mixture of isomers) [compound 584]
4.70^[a]	CC(=NOCC(C)CON=C(C)c1ccc(C)o1)c1ccc(C)o1 (mixture of isomers) [compound 585]

Further lines, the compound ahead of its results:

Compound	logP
CCC(=NOCC1(CON=C(CC)c2cc(C)cc(C)n2)CC1)c1cc(C)cc(C)n1 (mixture of isomers) [Compound 570]	3.22^[a]
CCC(=NOCC(C)(C)CON=C(CC)c1cc(C)cc(C)n1)c1cc(C)cc(C)n1 (mixture of isomers) [Compound 571]	3.92^[a]
Cc1cccc(C(=NOCC2(CON=C(c3cccc(C)n3)C3CC3)CC(C(C)(C)C)=NO2)C2CC2)n1 (mixture of isomers) [compound 651]	3.98^[a]
Cc1cccc(C(=NOCCCON=C(c2ccccc2)c2cccc(C)n2)c2ccccc2)n1 (mixture of isomers) [compound 656]	3.68^[a]
Cc1cccc(C(=NOCC(C)(C)CON=C(c2ccccc2)c2cccc(C)n2)c2ccccc2)n1 (mixture of isomers) [compound 660]	4.09^[a]

Same assay, conditions: method marked [b] in Table 1

logP	Compound
6.22^[b]	CON=C(c1ccccc1)c1cccc(C(C)=NOCC(C)CON=C(C)c2cccc(C)n2)n1 (mixture of isomers) [Compound 693]
3.47^[b]	CC(=NOCC(C)CON=C(C)c1ccc[nH]1)c1ccc[nH]1 (mixture of isomers) [compound 566]

Continued, compound first:

Compound	logP
C=C(CON=Cc1cc(C(F)(F)F)cc(C)n1)CON=C(C)c1cccc(C)n1 (mixture of isomers) [Compound 671]	4.61^[b]
CC(=NOC(C)C(C)C(C)ON=C(C)c1cccc(C)n1)c1cccc(C)n1 (mixture of isomers) [Compound 743]	4.90^[b]

Same assay, conditions: method marked [c] in Table 1

logP	Compound
3.62^[c]	CC(=NOCC(C)CON=C(C)c1ccc[nH]1)c1ccc[nH]1 (mixture of isomers) [compound 566]

Same assay, conditions: method marker [a] (footnote not shown); isomer A / isomer B / isomer mixture as noted in the cell

logP	Compound
2.22^[a]	CC(=NOCCON=C(C)c1cccc(C)n1)c1cccc(C)n1 (mixture of isomers) [Compound 13]
3.80^[a]	CCC(=NOCCCON=C(CC)c1ccc(C)c(C)n1)c1ccc(C)c(C)n1 (mixture of isomers) [Compound 236]
6.27^[a]	C=C(CON=C(CCC)c1cccc(C)n1)CON=C(CCC)c1cccc(C)n1 (mixture of isomers) [Compound 240]
4.13^[a]	Cc1cccnc1C(=NOCCCON=C(c1ncccc1C)C(C)C)C(C)C (mixture of isomers) [compound 92]
4.28^[a]	Cc1cccnc1C(=NOCC(C)CON=C(c1ncccc1C)C(C)C)C(C)C (mixture of isomers) [compound 103]
3.87^[a]	CC(=NOCC(C)CON=C(C)c1cccnc1Cl)c1cccnc1Cl (mixture of isomers) [compound 107]
4.73^[a]	CCCC(=NOCC(C)CON=C(CCC)c1ncccc1C)c1ncccc1C (mixture of isomers) [compound 111]
4.02^[a]	CC(=NOCC(C)CON=C(C)c1sc(C)nc1C)c1sc(C)nc1C (mixture of isomers) [compound 121]
4.98^[a]	CC(=NOCC(C)CON=C(C)c1nc(C)cs1)c1nc(C)cs1 (mixture of isomers) [compound 122]
3.77^[a]	CCC(=NOCCON=C(CC)c1cccc(C)n1)c1cccc(C)n1 (mixture of isomers) [compound 222]
4.86^[a]	CCC(=NOCCCCON=C(CC)c1cccc(C)n1)c1cccc(C)n1 (mixture of isomers) [compound 223]
1.50^[a]	CC(=NOCC(C)CON=C(C)c1ccc(C)nc1)c1ccc(C)nc1 (mixture of isomers) [compound 233]
1.22^[a]	CC(=NOCC(C)CON=C(C)c1cccnc1C)c1cccnc1C (mixture of isomers) [compound 234]

The next lines start with the compound.

Compound	logP
CC(=NOCCCON=C(C)c1nc(C)cs1)c1cccc(C)n1 (mixture of isomers) [Compound 16]	3.35^[a]
Cc1cccc(C(=NOCCCON=C(c2cccc(C)n2)C2CC2)C2CC2)n1 (mixture of isomers) [Compound 167]	2.85^[a]
CC(=NOCC(C)CON=C(C)c1csc(Cl)n1)c1csc(Cl)n1 (mixture of isomers) [compound 231]	5.16^[a]
CC(=NOCCCON=C(C)c1csc(Cl)n1)c1csc(Cl)n1 (mixture of isomers) [compound 232]	4.69^[a]
Cc1ccc(C(=NOCCCON=C(c2ccc(C)c(C)n2)C(C)C)C(C)C)nc1C (mixture of isomers) [compound 237]	4.00^[a]
Cc1ccc(C(=NOCCCON=C(c2ccc(C)c(C)n2)C(C)C)C(C)C)nc1C (mixture of isomers) [compound 238]	4.94^[a]

Same assay, conditions: method marker [b]; isomer A / isomer B / isomer mixture as noted in the cell

logP	Compound
4.74^[b]	CC(=NOCC(C)(C)CON=C(C)c1cccc(C)n1)c1cccc(C)n1 (mixture of isomers) [Compound 250]
5.08^[b]	C=C(CON=C(C)c1cccc(C)n1)CON=C(CC(C)C)c1ncccc1C (mixture of isomers) [compound 154]

Same assay, conditions: method marker [c] (footnote not shown)

logP	Compound
4.47^[c]	CC(=NOCCCON=C(C)c1nc(C)cs1)c1cccc(C)n1 (mixture of isomers) [Compound 16]

Same assay, conditions: value marked [a]

logP	Compound
5.22^[a]	CCCC(=NOCCCON=C(CCC)c1ccc(C)c(C)n1)c1ccc(C)c(C)n1 (mixture of isomers) [Compound 260]
3.09^[a]	CC(=NOCC(C)CON=C(C)c1cc(C)n(C)n1)c1cc(C)n(C)n1 (mixture of isomers) [compound 261]
4.03^[a]	Cc1cccc(C(=NOCCON=C(c2cccc(C)n2)C(C)C)C(C)C)n1 (mixture of isomers) [compound 288]
4.82^[a]	Cc1ccc(C(=NOCC(C)CON=C(c2ccc(C)c(C)n2)C(C)C)C(C)C)nc1C (mixture of isomers) [compound 299]

More lines, now with the values behind:

Compound	logP
Cc1cccc(C(=NOCC(C)(C)CON=C(c2cccc(C)n2)C2CC2)C2CC2)n1 (mixture of isomers) [Compound 281]	4.04^[a]
C=C(CON=C(c1cccc(C)n1)C1CC1)CON=C(c1cccc(C)n1)C1CC1 (mixture of isomers) [Compound 312]	3.10^[a]
CC(=NOC(C)C(C)C(C)ON=C(C)c1cc(C)cc(C)n1)c1cc(C)cc(C)n1 (mixture of isomers) [Compound 790]	3.60^[a]
CC(=NOC1CCC(ON=C(C)c2cc(C)cc(C)n2)C1)c1cc(C)cc(C)n1 (mixture of isomers) [compound 796]	2.55^[a]
CC(=NOC1CCC(ON=C(C)c2cccc(C)n2)C1)c1cccc(C)n1 (mixture of isomers) [compound 797]	4.60^[a]
CC(=NOC1CCCC(ON=C(C)c2cccc(C)n2)C1)c1cccc(C)n1 (mixture of isomers) [compound 801]	4.96^[a]

Same assay, conditions: value marked [b]

logP	Compound
4.44^[b]	CC(=NOC(C)C(C)C(C)ON=C(C)c1cc(C)cc(C)n1)c1cc(C)cc(C)n1 (mixture of isomers) [Compound 790]
4.72^[b]	CC(=NOCC(C)(C)CON=C(c1ccccc1)c1cccc(C)n1)c1cccc(C)n1 (mixture of isomers) [Compound 880]
6.33^[b]	CCC(=NOCC(C)CON=C(CC)c1cccc(CC)n1)c1cccc(CC)n1 (mixture of isomers) [compound 263]

Same assay, conditions: value marked [c]

logP	Compound
5.37^[c]	CC(=NOCC(C)(C)CON=C(c1ccccc1)c1cccc(C)n1)c1cccc(C)n1 (mixture of isomers) [Compound 880]
